According to ChEMBL document CHEMBL1135474, “Synthesis and antitumor activity of 1,5,6-substituted E-3-(2-chloro-3-indolylmethylene)-1,3-dihydroindol-2-ones” (J Med Chem, 2002):

Tests used:
[1] = tested on: Panel CNS (Carcinoma cell lines); experiment: Inhibition of proliferation in NCI human CNS tumor cell lines; format: functional
[2] = tested on: Panel CNS (Carcinoma cell lines); experiment: Cytotoxic effect on human CNS tumor cell lines; format: functional
[3] = tested on: Panel CNS (Carcinoma cell lines); experiment: Cytostatic effect on human CNS tumor cell lines; format: functional
[4] = tested on: Panel colon (Carcinoma cell lines); experiment: Cytostatic effect on human colon tumor cell lines; format: functional
[5] = tested on: Panel leukemia (Carcinoma cell lines); experiment: Inhibition of proliferation in NCI human leukemia tumor cell lines; format: functional
[6] = tested on: MCF7; experiment: Cytotoxic effect on human MCF-7 breast cancer cell line as percentage growth at 10e-4 M; format: functional
[7] = tested on: NCI-H460; experiment: Cytotoxic effect on human NCI-H460 lung cancer cell line as percentage growth after inoculation at 10e-4 M; format: functional
[8] = tested on: NSCLC; experiment: Cytostatic effect on human non-small cell lung carcinoma tumor cell lines; format: functional
[9] = tested on: NSCLC; experiment: Inhibition of proliferation in NCI human non-small cell lung tumor cell lines; format: functional
[10] = tested on: Panel prostate (Carcinoma cell lines); experiment: Cytotoxic effect on human prostate tumor cell lines; format: functional
[11] = tested on: SF-268; experiment: Cytotoxic effect on human SF-268 glioma cancer cell line as percentage growth after inoculation at 10e-4 M; format: functional
[12] = tested on: Panel breast (Carcinoma cell lines); experiment: Inhibition of proliferation in NCI human breast tumor cell lines; format: functional
[13] = tested on: Panel breast (Carcinoma cell lines); experiment: Cytostatic effect on human breast tumor cell lines; format: functional
[14] = tested on: Panel leukemia (Carcinoma cell lines); experiment: Cytotoxic effect on human leukemia tumor cell lines; format: functional
[15] = tested on: Panel leukemia (Carcinoma cell lines); experiment: Cytostatic effect on human leukemia tumor cell lines; format: functional
[16] = tested on: Panel colon (Carcinoma cell lines); experiment: Inhibition of proliferation in NCI human colon tumor cell lines; format: functional
[17] = tested on: Panel colon (Carcinoma cell lines); experiment: Cytotoxic effect on human colon tumor cell lines; format: functional
[18] = tested on: Panel ovarian (Carcinoma cell lines); experiment: Inhibition of proliferation in NCI human ovarian tumor cell lines; format: functional
[19] = tested on: Panel ovarian (Carcinoma cell lines); experiment: Cytotoxic effect on human ovarian tumor cell lines; format: functional
[20] = tested on: Panel ovarian (Carcinoma cell lines); experiment: Cytostatic effect on human ovarian tumor cell lines; format: functional
[21] = tested on: Panel melanoma (Carcinoma cell lines); experiment: Inhibition of proliferation in NCI human melanoma tumor cell lines; format: functional
[22] = tested on: Panel melanoma (Carcinoma cell lines); experiment: Cytotoxic effect on human melanoma tumor cell lines; format: functional
[23] = tested on: Panel melanoma (Carcinoma cell lines); experiment: Cytostatic effect on human melanoma tumor cell lines; format: functional
[24] = tested on: Panel prostate (Carcinoma cell lines); experiment: Inhibition of proliferation in NCI human prostate tumor cell lines; format: functional
[25] = tested on: Panel prostate (Carcinoma cell lines); experiment: Cytostatic effect on human prostate tumor cell lines; format: functional
[26] = Cytostatic effect on 60 human tumor cell line panel, MG-MID represents mean value; format: functional
[27] = Inhibition of proliferation in NCI 60 human tumor cell line panel, MG-MID represents mean value; format: functional
[28] = Cytotoxic effect on 60 human tumor cell line panel, MG-MID represents mean value; format: functional
[29] = tested on: Panel renal (Carcinoma cell lines); experiment: Inhibition of proliferation in NCI human renal tumor cell lines; format: functional
[30] = tested on: Panel renal (Carcinoma cell lines); experiment: Cytotoxic effect on human renal tumor cell lines; format: functional
[31] = tested on: Panel renal (Carcinoma cell lines); experiment: Cytostatic effect on human renal tumor cell lines; format: functional
[32] = tested on: Panel breast (Carcinoma cell lines); experiment: Cytotoxic effect on human breast tumor cell lines; format: functional
[33] = target: Cyclin-dependent kinase 1/cyclin B (Homo sapiens, UniProt P06493); experiment: Inhibition of Cyclin-dependent kinase 1-cyclin B; format: protein-complex assay

Row | Structure (SMILES) | GI50 [1] [nM] | LC50 [2] | logTGI [3] | logTGI [4] | GI50 [5] [nM] | Growth [6] [%] | Growth [7] [%] | logTGI [8] [log M] | GI50 [9] [nM] | LC50 [10] | Growth [11] [%] | GI50 [12] [nM] | logTGI [13] | LC50 [14] | logTGI [15] | GI50 [16] [nM] | LC50 [17] | GI50 [18] [nM] | LC50 [19] | GI50 [21] [nM] | also measured
1 | COc1cc2c(/C=C3/C(=O)N(c4ccccc4)c4ccccc43)c(Cl)[nH]c2cc1C | 3160 | -4.2 | -4.7 log M | -4.7 log M | 2510 | 1 | -10 | -4.5 | 3160 | -4 | 1 | 2510 | -5 log M | -4 | -4.4 log M | 2510 | -4.2 | 2510 | -4.3 | 3160 | logTGI [20]: -4.8 log M; LC50 [22]: -4.3; logTGI [23]: -4.9 log M; GI50 [24]: 3160 nM; logTGI [25]: -4.9 log M; logTGI [26]: -4.7 log M; GI50 [27]: 3160 nM; LC50 [28]: -4.1; GI50 [29]: 3980 nM; LC50 [30]: -4.1; logTGI [31]: -4.4 log M
2 | COc1ccc2[nH]c(Cl)c(/C=C3/C(=O)N(c4ccccc4)c4ccccc43)c2c1 | – | – | – | – | – | 3 | 2 | – | – | – | 15 | – | – | – | – | – | – | – | – | – | –
3 | COc1cc2c(cc1C)NC(=O)/C2=C/c1c(Cl)n(-c2ccccc2)c2ccccc12 | – | – | – | – | – | 8 | 5 | – | – | – | 51 | – | – | – | – | – | – | – | – | – | –
4 | CC[C@]1(O)C[C@H]2CN(CCc3c([nH]c4ccccc34)[C@@](C(=O)OC)(c3cc4c(cc3OC)N(C=O)[C@H]3[C@@](O)(C(=O)OC)[C@H](OC(C)=O)[C@]5(CC)C=CCN6CC[C@]43[C@@H]65)C2)C1.O=S(=O)(O)O [VINCRISTINE SULFATE] | 126 | -3.7 | -5.2 | -5.4 | 100 | – | – | -4.8 | 251 | -3.5 | – | 316 | -5.1 | -3.2 | -4.8 | 100 | -4.1 | 316 | -3.5 | 158 | LC50 [32]: -3.5; logTGI [20]: -4.7; LC50 [22]: -3.6; logTGI [23]: -5.1 log M; GI50 [24]: 126 nM; logTGI [25]: -5.2; logTGI [26]: -5; GI50 [27]: 200 nM; LC50 [28]: -3.6; GI50 [29]: 316 nM; LC50 [30]: -3.6; logTGI [31]: -4.7
5 | COc1cc2c(/C=C3/C(=O)Nc4ccccc43)c(Cl)[nH]c2cc1C | 79.4 | -4.4 | -5.6 log M | -5.1 log M | 63.1 | -54 | -39 | -4.7 | 126 | -4.4 | -30 | 100 | -5.3 log M | -4.1 | -4.7 log M | 79.4 | -4.6 | 79.4 | -4.4 | 126 | logTGI [20]: -5.2 log M; LC50 [22]: -4.6; logTGI [23]: -5 log M; GI50 [24]: 126 nM; logTGI [25]: -4.8 log M; logTGI [26]: -5 log M; GI50 [27]: 100 nM; LC50 [28]: -4.3; GI50 [29]: 200 nM; LC50 [30]: -4.3; logTGI [31]: -4.7 log M
6 | COc1cc2c(cc1C)NC(=O)/C2=C/c1c(Cl)n(C)c2ccccc12 | – | – | – | – | – | 3 | -50 | – | – | – | -14 | – | – | – | – | – | – | – | – | – | –
7 | COc1ccc2c(c1)/C(=C\c1c(Cl)n(-c3ccccc3)c3ccccc13)C(=O)N2 | – | – | – | – | – | -6 | -28 | – | – | – | 12 | – | – | – | – | – | – | – | – | – | –
8 | COc1ccc2[nH]c(Cl)c(/C=C3/C(=O)Nc4cc(C)c(OC)cc43)c2c1 | – | – | – | – | – | -23 | -23 | – | – | – | -54 | – | – | – | – | – | – | – | – | – | IC50 [33]: 30000 nM
9 | COc1ccc2c(c1)/C(=C\c1c(Cl)[nH]c3cc(C)c(OC)cc13)C(=O)N2 | 794 | -4.7 | -5.2 log M | -5 log M | 501 | -54 | -48 | -4.8 | 2510 | -4.4 | -44 | 1000 | -5 log M | -4.2 | -5.1 log M | 1000 | -4.4 | 794 | -4.3 | 1000 | logTGI [20]: -5.3 log M; LC50 [22]: -4.5; logTGI [23]: -5 log M; GI50 [24]: 1260 nM; logTGI [25]: -5.1 log M; logTGI [26]: -5 log M; GI50 [27]: 1000 nM; LC50 [28]: -4.3; GI50 [29]: 2000 nM; LC50 [30]: -4.3; logTGI [31]: -4.8 log M
10 | O=C1Nc2ccccc2/C1=C\c1c(Cl)n(-c2ccccc2)c2ccccc12 | – | – | – | – | – | 8 | -16 | – | – | – | -17 | – | – | – | – | – | – | – | – | – | –
11 | O=C1Nc2ccccc2/C1=C\c1c(Cl)[nH]c2ccc(O)cc12 | – | – | – | – | – | -69 | -82 | – | – | – | -34 | – | – | – | – | – | – | – | – | – | IC50 [33]: 30000 nM
12 | COc1cc2c(/C=C3/C(=O)N(C)c4ccccc43)c(Cl)[nH]c2cc1C | 200 | -4.5 | -5.6 log M | -5 log M | 251 | 4 | -18 | -5 | 794 | -4 | -1 | 158 | -5.1 log M | -4 | -4.6 log M | 316 | -4.2 | 316 | -4.3 | 631 | logTGI [20]: -5.2 log M; LC50 [22]: -4; logTGI [23]: -4.6 log M; GI50 [24]: 398 nM; logTGI [25]: -4.7 log M; logTGI [26]: -4.9 log M; GI50 [27]: 398 nM; LC50 [28]: -4.1; GI50 [29]: 2000 nM; LC50 [30]: -4; logTGI [31]: -4.2 log M
13 | COc1cc2c(cc1C)NC(=O)/C2=C/c1c(Cl)[nH]c2ccccc12 | – | – | – | – | – | -35 | -35 | – | – | – | -48 | – | – | – | – | – | – | – | – | – | IC50 [33]: 20000 nM
14 | COc1cc2c(cc1C)NC(=O)/C2=C/c1c(Cl)[nH]c2cc(C)c(OC)cc12 | 631 | -4.6 | -5.3 log M | -4.7 log M | 501 | -51 | -63 | -4.8 | 3160 | -4.4 | -67 | 2510 | -4.7 log M | -4.2 | -4.8 log M | 3980 | -4.2 | 2000 | -4.4 | 3160 | LC50 [32]: -4.1; TGI [20]: -4.9 log10 M; LC50 [22]: -4.3; TGI [23]: -4.8 log10 M; GI50 [24]: 1260 nM; logTGI [25]: -4.9 log M; logTGI [26]: -4.8 log M; GI50 [27]: 2000 nM; LC50 [28]: -4.3; GI50 [29]: 2510 nM; LC50 [30]: -4.3; logTGI [31]: -4.8 log M
15 | O=C1/C(=C/c2c(Cl)[nH]c3ccccc23)c2ccccc2N1c1ccccc1 | – | – | – | – | – | -3 | -1 | – | – | – | 6 | – | – | – | – | – | – | – | – | – | –
